Measured values from patent US7005258B1, “Cdc25 genes, encoded products and uses thereof” (The National Institutes of Health, priority 1991, dated 2006).
pIC50: −log10 of the molar value.

Target: T1, GST-cdc25A phosphatase (Homo sapiens, UniProt P30304)
T1 construct: made in house; host or cells: E. coli BL21(DE3)
T1 sequence (P30304 1-524): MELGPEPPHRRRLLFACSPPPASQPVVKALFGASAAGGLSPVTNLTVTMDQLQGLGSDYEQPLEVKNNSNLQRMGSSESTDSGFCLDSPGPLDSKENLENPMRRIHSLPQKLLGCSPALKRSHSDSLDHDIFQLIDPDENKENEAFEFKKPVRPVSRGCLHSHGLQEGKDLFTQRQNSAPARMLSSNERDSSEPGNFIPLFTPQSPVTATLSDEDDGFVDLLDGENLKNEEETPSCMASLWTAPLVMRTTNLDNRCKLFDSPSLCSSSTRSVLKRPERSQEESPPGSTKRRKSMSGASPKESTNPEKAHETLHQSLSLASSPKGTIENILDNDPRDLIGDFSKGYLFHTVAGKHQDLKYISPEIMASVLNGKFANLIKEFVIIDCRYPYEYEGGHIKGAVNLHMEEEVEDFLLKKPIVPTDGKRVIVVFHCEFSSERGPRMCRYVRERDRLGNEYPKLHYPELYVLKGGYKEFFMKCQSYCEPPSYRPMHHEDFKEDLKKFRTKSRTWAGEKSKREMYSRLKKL
Experiment: GST-cdc25A phosphatase activity towards p-nitrophenylphosphate (microtitration plate assay)
Type: biochemical
Description: One ml assay: 100 μl of GST-cdc25A protein (diluted to an activity of ∂ OD 410 nm=0.3/10 min) were mixed with 100 μl […] (in Tris buffer A) and 700 μl of Tris buffer A. The assay was initiated by addition of 100 μl 500 mM p-NPP (in Tris buffer A). After 10 min incubation at 37° C., the assay was terminated by addition of 40 μl 5 N NaOH and transfer of the tubes to 4° C. Absorbance at 410 nm was then measured and blank values (no GST-cdc25A protein but 10 min incubation) were subtracted.
This assay was then scaled down to 200 μl and conducted semi-automatically in 96-wells microtitration plates, as described in detail below. Each well was filled with 20 μl GST-cdc25A phosphatase, 140 μl Tris buffer A, 20 μl 100 mM DTT (in Tris buffer A); after 15 min equilibration at 37° C., reaction was initiated by addition of 20 μl 500 mM p-NPP (in Tris buffer A). After 60 min incubation absorbance at 405 nm was monitored in a microplate reader; blank values (no GST-cdc25A added) were subtracted.
Microtitration plate assay: 20 μl of GST-cdc25A protein (diluted to an activity of a ∂ OD 405 nm=0.2–0.3/60 min) were mixed with 20 μl 100 mM DTT (in Tris buffer A) and 140 μl of Tris buffer A, in 96-wells microtitration plates (Corning). The plates were preincubated at 37° C. for 15 min in a Denley Wellwarm 1 microplate incubator. The assays were initiated by addition of 20 μl of 500 mM p-NPP (in Tris buffer A). After 60 min incubation at 37° C. absorbance at 405 nm was measured in a bioRad microplate reader. Blank values (no CST-cdc25A protein added) were automatically subtracted.
In a series of experiments various antimitotic compounds currently used in cancer therapy were tested as potential inhibitors of the phosphatase (the Table). Most of them are reported to act as DNA damaging agents, as DNA intercalators, as topoisomerase 2 inhibitors or as compounds interfering with spindle microtubles. […] As a positive control vanadate, a reported inhibitor of tyrosine phosphatases was also tested (Gordon, J. A., 1Methods in Enzymology pp. 447–482 (1991)).

[Na+].[Na+].[Na+].[O]=[V]([O-])([O-])[O-] [vanadate, sodium orthovanadate]
inhibition of GST-cdc25A phosphatase (at concentrations above 500 μM): totally inhibits | inhibition of cdc25 / GST-cdc25A phosphatase (summary statement) (concentration not given): totally inhibit | pIC50 (p-NPP substrate, FIG. 14, read-out: I50, inhibition of GST-cdc25A phosphatase): 4.70
